Assay results as given in PMC6745035, “Novel tetrahydroacridine derivatives with iodobenzoic moieties induce G0/G1 cell cycle arrest and apoptosis in A549 non-small lung cancer and HT-29 colorectal cancer cells” (Molecular and Cellular Biochemistry, 2019).

What was measured:
HT-29 cells [1] = test: Reactive oxygen species assay (DCFH-DA), HT-29; assay type: cell-based, human; settings: compound at IC50 24 h plus H2O2, H2O2 only 1.88-fold
Experimental: After incubation, compounds were added into the wells and further incubated for next 24 h. H2O2 (1 mM) was added at 22nd h of incubation with compounds. H2O2 was used as a positive control. 30 min before the analysis, DCFH-DA (20 µM) was added to the wells. After incubation, cells were harvested and washed in PBS. Then, cells were centrifuged at 1500 rpm for 10 min. Medium was removed and cells were suspended in PBS. Analysis was performed on BD Accuri C6 Flow Cytometry (Becton–Dickinson).

HT-29 cells [2] = test: Colony forming assay, HT-29
A549 cells = test: Cell cycle analysis (PI, flow cytometry), A549; assay type: cell-based, human; settings: A549, 24 h, compound at 1/2IC50 (1i 7.44 µM)
Experimental: Then, compounds were added into the wells and cells were further incubated for 24 h. After incubation, monolayer and supernatant cells were harvested and washed in PBS. Then, cells were centrifuged (monolayer—1200 rpm for 10 min, supernatant 3500 rpm for 10 min) and fixed in cold 70% ethanol. Pellets were kept at 4 °C for at least 2 h. Prior to analysis, cells were centrifuged and re-suspended in RNAsi (type 1-A; Sigma Aldrich)—PBS working solution (200 µg/mL). Samples were incubated at 37 °C for 10 min. At the end, 3 µL of 2 mg/mL propidium iodide (PI) (Sigma Aldrich) solution was added to each sample. Samples were kept in the dark prior to analysis. Analysis was performed on BD Accuri C6 Flow Cytometry (Becton–Dickinson). Etoposide (Calbiochem) was used as a reference drug. Experiments were done in triplicates.

SH-SY5Y cells = test: Cytoprotection against rotenone/oligomycin A, co-incubation, MTT; assay type: cell-based, human; settings: co-incubation with rotenone/oligomycin A, 0.001 µM
Experimental: In the co-incubation assay, compounds and mixture of R/O were incubated together for 24 h. […] It turned out that none of the compounds (apart from 1i at the concentration of 0.001 µM and cytoprotection of 2.99%) had cytoprotective properties in the whole range of concentrations (Fig. 17). Compounds were not able to capture free radicals; therefore they cannot be classified as free-radical scavengers.

O=C(NCCCCNc1c2c(nc3ccccc13)CCCC2)c1ccccc1I [Compound 1c]
Increase in ROS level (DCF fluorescence) in comparison with non-treated control (HT-29 cells [1]): 1.83 fold
Number of colonies expressed as percent of control number (HT-29 cells [2]; compound at 1/2IC50): 10.06%
Number of colonies expressed as percent of control number (HT-29 cells [2]; compound at 2xIC50): 0%
Number of colonies expressed as percent of control number (HT-29 cells [2]; compound at IC50): 4.38%

O=C(NCCCCNc1c2c(nc3ccccc13)CCCC2)c1ccc(I)cc1 [Compound 1i]
Cells in G2/M phase (A549 cells): 11.31%
Cells in S phase (A549 cells): 12.76%
Cells in G0/G1 phase (A549 cells; control 51.74%): 75.93%
Cytoprotection (SH-SY5Y cells): 2.99%
Increase in ROS level (DCF fluorescence) in comparison with non-treated control (HT-29 cells [1]): 1.85 fold
